Experimental data: article PMC10721786, “Development of a potent benzonitrile-based inhibitor of glutaminyl-peptide cyclotransferase-like protein (QPCTL) with antitumor efficacy” (Signal Transduction and Targeted Therapy, 2023)

Tests used:
QPCTL = target: T1, QPCTL (Homo sapiens, UniProt Q9NXS2); assay: Enzyme activity assay (fluorescent, H-Gln-AMC / PGPEP I coupled) against QPCTL; format: biochemical; details: mean ± SD of three independent experiments
T1 construct: made in house; host or cells: Escherichia coli BL21 (DE3)
T1 sequence (Q9NXS2 whole entry): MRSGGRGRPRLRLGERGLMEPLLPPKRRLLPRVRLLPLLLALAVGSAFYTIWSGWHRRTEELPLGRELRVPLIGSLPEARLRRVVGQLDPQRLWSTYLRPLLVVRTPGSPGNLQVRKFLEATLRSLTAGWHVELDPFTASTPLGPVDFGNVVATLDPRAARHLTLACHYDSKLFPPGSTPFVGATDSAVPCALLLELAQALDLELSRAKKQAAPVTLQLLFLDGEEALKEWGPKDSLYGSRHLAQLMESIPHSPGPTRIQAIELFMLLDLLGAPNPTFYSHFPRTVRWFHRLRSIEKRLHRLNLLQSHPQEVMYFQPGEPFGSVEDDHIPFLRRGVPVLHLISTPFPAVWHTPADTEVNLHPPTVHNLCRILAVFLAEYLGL
Protocol: The DNA with sequence coding for the human glutaminyl-peptide cyclotransferase-like protein (nucleotide entry: NP_060129) was synthesized and then inserted into the pGEX-4T-2 vector. The vector was transformed into Escherichia coli BL21 (DE3) competent cells (Tiangen Biotech, Cat. # CB105). The bacteria were grown in LB media containing ampicillin (100 μg/ mL) at 37 °C until the cell density reached an OD600 of 0.8- 0.9. The cultures were induced with 1 mM IPTG for 8- 10 h at 20 °C. The bacteria were collected and resuspended in 50 mL PBS, and 1% Triton X-100 (v/v), 1% β-mercaptoethanol (v/v), PMSF (final concentration 1 mM) were added into the mixed solution. The bacterial cells were then harvested by centrifugation (4,700 g for 30 min at 4 °C) followed by ultrasonic breaking. The resulted solution was clarified by centrifugation at 13,800 g for 30 min. GST-beads was suspended to the supernatant and was gently shook for 1 hour to bind the protein. The resulted protein solution was centrifuged at 1,500 g for 5 min and the supernatant was discarded. At least 10-fold the volume of PBS was added to the pellet to sufficiently suspend the beads in the solution. Then the solution was clarified by centrifugation at 1,500 g for 5 min and the supernatant was discarded. The above steps were repeated twice. 1 mL GST elution buffer was added to the pellet and the solution was shaken gently for 30 min following by centrifugation at 1,500 g for 5 min. The supernatant was collected and was eluted with GST elution buffer at least twice. The supernatant was loaded onto SDS-PAGE electrophoresis to detect protein purity. The protein was stored in 20% glycerol at -80 °C.
Enzyme activity was measured by conversion of glutamine-4-amino-7-methylcounarine (H-Gln-AMC) to pyroglutamyl-AMC, which is subsequently a specific substrate for PGPEP I, releasing free AMC which can be fluorescently detected. For typical inhibition assay, 12.5 μL QPCTL protein (7 ng/μL) or QPCT protein (7 ng/μL) (MedChemExpress, Cat. #HY-P76560) and 2.5 μL of tested compounds with different concentrations were pipetted into a 384-well plate on ice. The reaction system was reacted in a shaker at 37 °C, 100 rpm for 10 minutes. Next, 10 μL fluorescent substrate H-Gln-AMC (500 μM) was added and incubated in 100 rpm for 20 min at 37 °C. […] Once done, the plate was moved over to TECAN Infinite 200PRO plate-reader to monitor and record the maximum fluorescence at 380nm excitation/ 460nm emission. The fluorescent signal value obtained was analyzed by Graphpad Prism 8.0 to obtain the inhibitory rate and IC50 of the compound.

pGlu-CD47 [1] = assay: Flow cytometry of pGlu-CD47 (hCD47-CC2C6 binding) in Raji cells; format: cell-based, human; details: 100 nM, 48 h
Protocol: (§1) Binding to cell surface CD47 was assessed by staining cells with fluorochrome-labeled antibodies clone CC2C6 (BioLegend, Cat. # 323102) and B6H12 (Abcam, Cat. # ab134485) to human CD47 at a dilution of 1:100 in PBS containing 1% FBS (FACS buffer) for 30 min on ice, while protected from light. SIRPα binding to CD47 was assessed by incubating cells with PE labeled recombinant human SIRPα/ CD172α Protein, Fc tag (ACRO Biosystems, Cat. # SIA-HP252) or PE labeled mouse SIRPα Protein, His tag (ACRO Biosystems, Cat. # SIA-MP2H6) for 1 hour on ice, while protected from light.

pGlu-CD47 [2] = assay: hCD47-CC2C6 binding to various cancer cells (H929, HCT116, Huh7, SKOV3, SU-DHL-8, T24, H1299, MCF-7); format: cell-based, human; details: 500 nM, 48 h
Protocol: as §1

CD47 = assay: Overall cell surface CD47 (hCD47-B6H12 binding) in HEK293T and Raji cells; format: cell-based, human; details: 100 nM, 48 h
Protocol: as §1

CD47/SIRPα = assay: Cell surface binding of human or mouse SIRPα protein to tumor cells (Raji, B16F10), flow cytometry; format: cell-based
Protocol: as §1

pGlu-CD47 [3] = assay: Flow cytometry of pGlu-CD47 (hCD47-CC2C6 binding) in HEK293T cells; format: cell-based, human; details: for IC50: Homo sapiens, HEK-293T, treatment 48 h, read-out: IC50, dose-dependent inhibition of pGlu-CD47
Protocol: as §1

SMILES	IC50 (QPCTL) [nM]	further results
Cn1cnnc1C1CCN(c2c(C#N)cccc2-c2cncnc2)CC1 [Compound 9]	76.5 ± 21.3	–
COc1ccc(-c2cccc(C#N)c2N2CCC(c3nncn3C)CC2)cn1 [Compound 13]	368 ± 82	–
Cn1cnnc1C1CCN(c2c(C#N)cccc2-c2ccc(=O)n(C)c2)CC1 [Compound 21]	573 ± 85.5	–
Cn1cnnc1C1CCN(c2c(C#N)cccc2-c2cc[nH]c(=O)c2)CC1 [Compound 22]	17.6 ± 6.2	–
Cn1cnnc1C1CCN(c2c(C#N)cccc2-c2ccc(C#N)nc2)CC1 [Compound 11]	417 ± 210	–
Cc1noc(C)c1-c1cccc(C#N)c1N1CCC(c2nncn2C)CC1 [Compound 25]	> 1000	–
Cn1cnnc1C1CCN(c2c(C#N)cccc2-c2ccc(C(F)(F)F)nc2)CC1 [Compound 10]	> 1000	–
Cn1cnnc1C1CCN(c2c(C#N)cccc2-c2ccccc2)CC1 [Compound 6]	> 1000	–
Cn1cnnc1C1CCN(c2c(C#N)cccc2-c2ccc(F)nc2)CC1 [QP5020]	–	inhibitory effect on CD47 pyroglutamation compared to SEN177 and PQ912 (pGlu-CD47 [1]): superior inhibitory effects; CD47 pyroglutamation in various types of cancer cells (pGlu-CD47 [2]): significantly attenuated; overall cell surface levels of CD47 (CD47): did not alter; binding of human or mouse SIRPα protein to cell surface (CD47/SIRPα): significantly reduced; inhibitory effect on CD47 pyroglutamation compared to SEN177 and PQ912 (pGlu-CD47 [3]; 100 nM, 48 h): superior inhibitory effects; IC50 (pGlu-CD47 [3]): 6.4 ± 0.7 nM
Cn1cnnc1C1CCN(c2ccccc2C#N)CC1 [Compound 8]	> 1000	–
Cn1cnnc1C1CCN(c2c(C#N)cccc2-c2ccoc2)CC1 [Compound 24]	135 ± 64.3	–
N#Cc1cccc(-c2ccc(F)nc2)c1N1CCC(c2cnc[nH]2)CC1 [Compound 29]	> 1000	–
Cn1cnnc1C1CCN(c2c(C#N)cccc2-c2cccnc2)CC1 [Compound 5]	56.5 ± 11.3	–
Cn1cnnc1C1CCN(c2c(C#N)cccc2-c2ccc(O)nc2)CC1 [Compound 20]	187 ± 20.8	–
Cn1cnnc1C1CCN(c2c(C#N)cccc2-c2ccc(N)nc2)CC1 [Compound 12]	471 ± 244	–
Cn1cnnc1C1CCN(c2c(C#N)cccc2-c2cncc(C#N)c2)CC1 [Compound 15]	124 ± 9.8	–
Cn1cnnc1C1CCN(c2c(C#N)cccc2-c2cnccc2Cl)CC1 [Compound 19]	105 ± 22.3	–
Cn1cnnc1C1CCN(c2c(C#N)cccc2-c2ccncc2)CC1 [Compound 7]	> 1000	–
Cn1cnnc1C1CCN(c2c(C#N)cccc2-c2ccn(C)c(=O)c2)CC1 [Compound 23]	19.6 ± 12.5	–
CCCOc1ccc([C@H]2CNC(=O)N2c2ccc3[nH]cnc3c2)cc1 [PQ912, reference compound]	51.8 ± 6.2	IC50 (pGlu-CD47 [3]): 988 ± 409 nM
Cc1ccncc1-c1cccc(C#N)c1N1CCC(c2nncn2C)CC1 [Compound 18]	74.5 ± 13.4	–
Cn1cnnc1C1CCN(c2c(C#N)cccc2-c2cncc(F)c2)CC1 [Compound 14]	73.6 ± 11.5	–
CC(C)n1cnnc1C1CCN(c2c(C#N)cccc2-c2ccc(F)nc2)CC1 [Compound 27]	> 1000	–
Cc1nnc(C2CCN(c3c(C#N)cccc3-c3ccc(F)nc3)CC2)n1C [Compound 26]	94.3 ± 13.9	–
COc1ccncc1-c1cccc(C#N)c1N1CCC(c2nncn2C)CC1 [Compound 16]	> 1000	–
Cn1cnnc1C1CCN(c2c(C#N)cccc2-c2cnccc2C(F)(F)F)CC1 [Compound 17]	53.5 ± 11.8	–
